Measurements from US20250346588A1, “IMIDAZOPYRIDINE AND OXAZOLOPYRIDINE DERIVATIVES AND ANALOGS THEREOF, METHODS OF PREPARATION THEREOF, METHODS OF HIF-1/2A PATHWAY INHIBITION, AND INDUCTION OF FERROPTOSIS” (KUDA THERAPEUTICS, INC., priority 2022, published 2025).

Test system: HIF-2α transcriptional activity
Test: Hypoxia-responsive element-driven luciferase (HRE-Luc) screen
Format: cell-based, human
Conditions: Homo sapiens, 786-0, 24 h, 786-0 ccRCC cells stably expressing HRE-Luc; 24 h treatment; range of IC50 values
Method: Screens for inhibitory activity of compounds described herein were performed using 786-0 ccRCC cells that stably express HRE-Luc: 5 copies of the hypoxia-responsive element (HRE) fused to the pGL3 luciferase reporter (Promega Corp, Madison WI). 786-0 cells are pVHL deficient and thus constitutively express HIF-2α independently of cellular oxygen tension. Since 786-0 cells lack HIF-1α, HRE-driven luciferase activity is primarily HIF-2α driven, and has been previously validated. Cells were maintained at log phase growth in […] (DMEM) with 10% FBS in a humidified incubator at 37° C. with 5% CO2. For screening assays, cells were seeded at a density of 4,000 cells in 50 μl of complete media/well in quadruplicate wells/point in a 96-well plate. After 24 h, 50 μl of a 2× concentration of test compound was added to each well. Compounds were diluted from a 5-10 mM stock in DMSO and final concentrations of DMSO in each well in controls and treated wells were kept constant at ≤0.6% DMSO. After 24 h treatment, luciferase activity was measured using the Steady-Glo Luciferase assay system (Promega Corp) according to the manufacturer's protocol. Cell viability was measured in quadruplicate parallel wells using resazurin as recommended by the manufacturer (R&D systems, Minneapolis, MN). Data for luciferase and resazurin were normalized to DMSO treated controls (defining 100%) and wells containing assay reagent but no cells (defining 0%) and graphed using the log inhibitor versus normalized response option in Graphpad Prism 9.3.1 software. Representative data determined using Steady-Glo luciferase and resazurin are shown in FIGS. 1A and 1B respectively, with error bars showing SD. Filled diamonds, empty squares and empty triangles indicate treatment with 3, 8 and 22 respectively with results for HRE-Luc shown in FIG. 1A.

| Structure (SMILES) | IC50 |
| --- | --- |
| COc1nccc2[nH]c(Nc3nnc(-c4ccc(N(C)C)cc4)o3)nc12 [Compound 28, N-(4-Methoxy-1H-imidazo[4,5-c]pyridin-2-yl)-5-(4-(dimethylamino)phenyl)-1,3,4-oxadiazol-2-amine] | < 10 µM |
| COc1ccc(-c2nnc(Nc3nc4ncccc4o3)o2)cc1 [Compound 30, N-(5-(4-Methoxyphenyl)-1,3,4-oxadiazol-2-yl)oxazolo[4,5-b]pyridin-2-amine] | < 10 µM |
| Fc1ccc(-c2nnc(Nc3nc4ccnc(-c5ccc6c(c5)OCO6)c4[nH]3)o2)cc1 [Compound 31, N-(4-(Benzo[d][1,3]dioxol-5-yl)-3H-imidazo[4,5-c]pyridin-2-yl)-5-(4-fluorophenyl)-1,3,4-oxadiazol-2-amine] | 10 to 50 µM |
| COc1nccc2[nH]c(Nc3nnc(-c4ccc(C#N)cc4)o3)nc12 [Compound 32, 4-(5-((4-Methoxy-1H-imidazo[4,5-c]pyridin-2-yl)amino)-1,3,4-oxadiazol-2-yl) benzonitrile] | > 10 µM |
| COc1ccc(-c2nnc(Nc3nc4c(OC)nccc4[nH]3)o2)cn1 [Compound 39, N-(4-Methoxy-1H-imidazo[4,5-c]pyridin-2-yl)-5-(6-methoxypyridin-3-yl)-1,3,4-oxadiazol-2-amine] | < 10 µM |
| COc1nccc2[nH]c(Nc3nnc(-c4ccc(OC5CC5)cc4)o3)nc12 [Compound 41, 5-(4-Cyclopropoxyphenyl)-N-(4-methoxy-1H-imidazo[4,5-c]pyridin-2-yl)-1,3,4-oxadiazol-2-amine] | < 10 µM |
| COc1nccc2[nH]c(Nc3nnc(-c4ccc(OC(C)C)cc4)o3)nc12 [Compound 42, 5-(4-Isopropoxyphenyl)-N-(4-methoxy-1H-imidazo[4,5-c]pyridin-2-yl)-1,3,4-oxadiazol-2-amine] | 10 to 50 µM |
| COc1ccc(-c2csc(Nc3nc4c(OC)nc(C)cc4[nH]3)n2)cc1C#N [Compound 53, 2-Methoxy-5-(2-((4-methoxy-6-methyl-1H-imidazo[4,5-c]pyridin-2-yl)amino)thiazol-4-yl)benzonitrile] | > 100 µM |
| COc1ccc(-c2nnc(Nc3nc4c(OC)nc(C)cc4[nH]3)o2)cc1OC [Compound 55, 5-(3,4-dimethoxyphenyl)-N-(4-methoxy-6-methyl-1H-imidazo[4,5-c]pyridin-2-yl)-1,3,4-oxadiazol-2-amine] | < 10 µM |
| COc1ccc(-c2cnc(Nc3nc4c(OC)nccc4[nH]3)o2)cc1OC [Compound 59, 5-(3,4-dimethoxyphenyl)-N-(4-methoxy-1H-imidazo[4,5-c]pyridin-2-yl)oxazol-2-amine] | 50 to 100 µM |
| COc1nccc2[nH]c(Nc3nnc([C@H]4CC[C@@H](OC)CC4)o3)nc12 [Compound 62, N-(4-methoxy-1H-imidazo[4,5-c]pyridin-2-yl)-5-((1s,4s)-4-methoxycyclohexyl)-1,3,4-oxadiazol-2-amine] | < 10 µM |
| COc1nccc2[nH]c(Nc3nnc([C@H]4CC[C@H](OC)CC4)o3)nc12 [Compound 63, N-(4-methoxy-1H-imidazo[4,5-c]pyridin-2-yl)-5-((1r,4r)-4-methoxycyclohexyl)-1,3,4-oxadiazol-2-amine] | < 10 µM |
| COc1nccc2nc(Nc3nnc(C4CCN(C)CC4)o3)[nH]c12 [Compound 64, N-(4-methoxy-3H-imidazo[4,5-c]pyridin-2-yl)-5-(1-methylpiperidin-4-yl)-1,3,4-oxadiazol-2-amine] | < 10 µM |
| COc1nccc2nc(Nc3nnc(N4CC(C)OC(C)C4)o3)[nH]c12 (centres unmarked) [Compound 70, 5-(2,6-dimethylmorpholino)-N-(4-methoxy-3H-imidazo[4,5-c]pyridin-2-yl)-1,3,4-oxadiazol-2-amine] | < 10 µM |
| COc1cccc2nc(Nc3nnc(N4CCC(OC)CC4)o3)[nH]c12 [Compound 71, N-(7-methoxy-1H-benzo[d]imidazol-2-yl)-5-(4-methoxypiperidin-1-yl)-1,3,4-oxadiazol-2-amine] | < 10 µM |
| COc1cccc2nc(Nc3nnc(N4CCOCC4)o3)[nH]c12 [Compound 72, N-(7-methoxy-1H-benzo[d]imidazol-2-yl)-5-morpholino-1,3,4-oxadiazol-2-amine] | 10 to 50 µM |
| COc1cccc2[nH]c(Nc3nnc(N4CCN(C)CC4)o3)nc12 [Compound 73, N-(4-methoxy-1H-benzo[d]imidazol-2-yl)-5-(4-methylpiperazin-1-yl)-1,3,4-oxadiazol-2-amine] | 50 to 100 µM |
| COc1cccc2nc(Nc3nnc(C4CCN(C)CC4)o3)[nH]c12 [Compound 74, N-(7-methoxy-1H-benzo[d]imidazol-2-yl)-5-(1-methylpiperidin-4-yl)-1,3,4-oxadiazol-2-amine] | 10 to 50 µM |
| COc1cccc2[nH]c(Nc3nnc(N4CCS(=O)(=O)CC4)o3)nc12 [Compound 76, 4-(5-((4-methoxy-1H-benzo[d]imidazol-2-yl)amino)-1,3,4-oxadiazol-2-yl)thiomorpholine 1,1-dioxide] | > 100 µM |
| COc1cccc2[nH]c(Nc3nnc(N4C[C@H](C)C[C@H](C)C4)o3)nc12 [Compound 92, 5-((3R,5S)-3,5-dimethylpiperidin-1-yl)-N-(4-methoxy-1H-benzo[d]imidazol-2-yl)-1,3,4-oxadiazol-2-amine] | > 100 µM |
| COc1cccc2nc(Nc3nnc(C4CCC(C(C)(C)C)CC4)o3)[nH]c12 (centres unmarked) [Compound 94, 5-(4-(tert-butyl)cyclohexyl)-N-(7-methoxy-1H-benzo[d]imidazol-2-yl)-1,3,4-oxadiazol-2-amine] | < 10 µM |
| COc1cccc2nc(Nc3nnc(C4C[C@H]5CC[C@@H]4C5)o3)[nH]c12 (stereo partly drawn) [Compound 96, 5-((1R,4S)-bicyclo[2.2.1]heptan-2-yl)-N-(7-methoxy-1H-benzo[d]imidazol-2-yl)-1,3,4-oxadiazol-2-amine] | 10 to 50 µM |
| [2H]C([2H])([2H])Oc1ccc(-c2nnc(Nc3nc4c(OC)nccc4[nH]3)o2)cc1OC([2H])([2H])[2H] [Compound 97, 5-(3,4-Dimethoxy-d3-phenyl)-N-(4-methoxy-1H-imidazo[4,5-c]pyridin-2-yl)-1,3,4-oxadiazol-2-amine] | < 10 µM |

Further lines, results first:

| IC50 | Structure (SMILES) |
| --- | --- |
| < 10 µM | COc1ccc(-c2nnc(Nc3nc4c(OC)nccc4[nH]3)o2)cc1OC [Compound 26, N-(4-Methoxy-1H-imidazo[4,5-c]pyridin-2-yl)-5-(3,4-dimethoxyphenyl)-1,3,4-oxadiazol-2-amine] |
| < 10 µM | COc1nccc2[nH]c(Nc3nnc(-c4ccc5c(c4)OCO5)o3)nc12 [Compound 27, N-(4-Methoxy-1H-imidazo[4,5-c]pyridin-2-yl)-5-(benzo[d][1,3]dioxol-5-yl)-1,3,4-oxadiazol-2-amine] |
| < 10 µM | COc1nccc2[nH]c(Nc3nnc(-c4ccc(C)cc4)o3)nc12 [Compound 29, N-(4-methoxy-1H-imidazo[4,5-c]pyridin-2-yl)-5-(p-tolyl)-1,3,4-oxadiazol-2-amine] |
| > 10 µM | COc1ccc(-c2nnc(Nc3nc4c(OC)nccc4[nH]3)o2)cc1F [Compound 33, 5-(3-Fluoro-4-methoxyphenyl)-N-(4-methoxy-1H-imidazo[4,5-c]pyridin-2-yl)-1,3,4-oxadiazol-2-amine] |
| 10 to 50 µM | COc1ccc(-c2nnc(Nc3nc4cccc(OC)c4[nH]3)o2)cc1 [Compound 82, N-(7-methoxy-1H-benzo[d]imidazol-2-yl)-5-(4-methoxyphenyl)-1,3,4-oxadiazol-2-amine] |
| > 100 µM | COc1ccc(-c2nnc(Nc3nc4c(OC)cccc4[nH]3)o2)c(C)c1 [Compound 83, N-(4-methoxy-1H-benzo[d]imidazol-2-yl)-5-(4-methoxy-2-methylphenyl)-1,3,4-oxadiazol-2-amine] |
| < 10 µM | COc1ccc(-c2nnc(Nc3nc4c(OC)cccc4[nH]3)o2)cc1OC [Compound 84, 5-(3,4-dimethoxyphenyl)-N-(4-methoxy-1H-benzo [d]imidazol-2-yl)-1,3,4-oxadiazol-2-amine] |
| > 100 µM | COc1ccc(-c2nnc(Nc3nc4c(OC)cccc4[nH]3)o2)cc1F [Compound 85, 5-(3-fluoro-4-methoxyphenyl)-N-(4-methoxy-1H-benzo[d]imidazol-2-yl)-1,3,4-oxadiazol-2-amine] |
| 50 to 100 µM | COc1cccc2[nH]c(Nc3nnc(-c4ccc5c(c4)OCCO5)o3)nc12 [Compound 86, 5-(2,3-dihydrobenzo[b][1,4]dioxin-6-yl)-N-(4-methoxy-1H-benzo[d]imidazol-2-yl)-1,3,4-oxadiazol-2-amine] |
| 10 to 50 µM | COc1cccc2[nH]c(Nc3nnc(-c4ccc5c(c4)CCO5)o3)nc12 [Compound 87, 5-(2,3-dihydrobenzofuran-5-yl)-N-(4-methoxy-1H-benzol[d]imidazol-2-yl)-1,3,4-oxadiazol-2-amine] |
| > 100 µM | CCOc1ccc(-c2nnc(Nc3nc4c(OC)cccc4[nH]3)o2)cc1OCC [Compound 88, 5-(3,4-diethoxyphenyl)-N-(4-methoxy-1H-benzo[d]imidazol-2-yl)-1,3,4-oxadiazol-2-amine] |
| > 100 µM | COc1cccc2[nH]c(Nc3nnc(-c4ccc5occc5c4)o3)nc12 [Compound 89, 5-(benzofuran-5-yl)-N-(4-methoxy-1H-benzo[d]imidazol-2-yl)-1,3,4-oxadiazol-2-amine] |
